# Reference: patent US11260049B2, “TRPV4 antagonists” (GlaxoSmithKline Intellectual Property (No. 2) Limited, priority 2016, dated 2022)
# pIC50: −log10 of the molar value.
# Molecular target: human TRPV4 (Homo sapiens (Human), UniProt Q9HBA0)
# Assay: FLIPR assay for hTRPV4 expressed in BHK cells
# Assay type: cell-based
# Conditions: inhibition of Agonist Compound (EC80)-induced calcium signal; BHK/AC9 cells expressing human TRPV4; read-out: IC50
# Method: FLIPR Assay for hTRPV4 Expressed in BHK Cells:
# TRPV4 channel activation results in an influx of divalent and monovalent cations including calcium. The resulting changes in intracellular calcium were monitored using a calcium specific fluorescent dye Fluo-4 (MDS Analytical Technologies). BHK/AC9 cells transduced with BacMam virus expressing the human TRPV4 gene at a MOI of 78 were plated in a 384 well poly-D lysine coated plate (15,000 cells/well in 50 μL culture medium containing DMEM/F12 with 15 mM HEPES, 10% FBS, 1% Penicillin-Streptomycin and 1% L-glutamine). Cells were incubated for 24 hours at 37° C. and 5% CO2. Culture medium was then aspirated using a Tecan plate-washer and replaced with 20 μL/well of dye loading buffer: HBSS, 500 μM Brilliant Black (MDS Analytical Technologies), and 2 μM Fluo-4 AM. Dye loaded plates were then incubated in the dark at room temperature for 1˜1.5 hours.
# Chain of human TRPV4 (Q9HBA0 whole entry): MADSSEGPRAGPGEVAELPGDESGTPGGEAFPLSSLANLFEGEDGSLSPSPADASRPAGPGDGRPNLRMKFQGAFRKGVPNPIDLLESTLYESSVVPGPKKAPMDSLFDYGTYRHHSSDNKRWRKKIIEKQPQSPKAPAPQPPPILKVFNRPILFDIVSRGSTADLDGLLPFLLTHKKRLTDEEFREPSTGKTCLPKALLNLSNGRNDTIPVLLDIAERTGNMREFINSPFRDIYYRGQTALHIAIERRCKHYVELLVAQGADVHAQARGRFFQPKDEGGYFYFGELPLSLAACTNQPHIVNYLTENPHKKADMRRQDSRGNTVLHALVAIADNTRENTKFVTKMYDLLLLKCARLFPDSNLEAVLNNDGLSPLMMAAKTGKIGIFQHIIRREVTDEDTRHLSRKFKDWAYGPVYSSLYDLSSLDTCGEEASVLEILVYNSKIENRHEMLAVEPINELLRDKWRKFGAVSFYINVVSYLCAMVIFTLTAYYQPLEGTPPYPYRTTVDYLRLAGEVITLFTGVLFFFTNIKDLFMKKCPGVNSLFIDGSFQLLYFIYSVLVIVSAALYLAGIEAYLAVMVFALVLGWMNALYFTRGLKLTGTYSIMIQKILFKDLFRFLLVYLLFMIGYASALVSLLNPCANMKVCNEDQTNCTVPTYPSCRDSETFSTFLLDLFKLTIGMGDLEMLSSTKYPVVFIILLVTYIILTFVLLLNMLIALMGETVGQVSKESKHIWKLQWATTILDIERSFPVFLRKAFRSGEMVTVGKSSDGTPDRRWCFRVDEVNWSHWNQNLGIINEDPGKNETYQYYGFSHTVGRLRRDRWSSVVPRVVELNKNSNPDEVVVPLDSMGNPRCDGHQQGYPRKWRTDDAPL
row,SMILES,pIC50
1,"COc1cc(Cl)ccc1S(=O)(=O)N1C[C@H](S(=O)(=O)c2ccc(C#N)cc2)[C@](O)(CO)C1 [Example 51, 4-(((3S,4R)-1-((4-chloro-2-methoxyphenyl)sulfonyl)-4-hydroxy-4-(hydroxymethyl)pyrrolidin-3-yl)sulfonyl)benzonitrile]",7.00 to 8.00
2,"COc1cc(Br)ccc1S(=O)(=O)N1C[C@H](S(=O)(=O)c2ccc(C#N)cc2)[C@](O)(CO)C1 [Example 52, 4-(((3S,4R)-1-((4-bromo-2-methoxyphenyl)sulfonyl)-4-hydroxy-4-(hydroxymethyl)pyrrolidin-3-yl)sulfonyl)benzonitrile]",7.00 to 8.00
3,"N#Cc1ccccc1S(=O)(=O)N1C[C@H](S(=O)(=O)c2ccc(C(F)(F)F)cc2)[C@](O)(CO)C1 [Example 53, 2-(((3R,4S)-3-hydroxy-3-(hydroxymethyl)-4-((4-(trifluoromethyl)phenyl)sulfonyl)pyrrolidin-1-yl)sulfonyl)benzonitrile]",7.00 to 8.00
4,"N#Cc1ccc(S(=O)(=O)N2C[C@H](S(=O)(=O)c3ccc(C(F)(F)F)cc3)[C@](O)(CO)C2)c(Cl)c1 [Example 54, 3-chloro-4-(((3R,4S)-3-hydroxy-3-(hydroxymethyl)-4-((4-(trifluoromethyl)phenyl)sulfonyl)pyrrolidin-1-yl)sulfonyl)benzonitrile]",8.00 to 10.00
5,"N#Cc1ccc(S(=O)(=O)N2C[C@H](S(=O)(=O)c3ccc(C(F)(F)F)cc3)[C@](O)(CO)C2)c(C(F)F)c1 [Example 55, 3-(difluoromethyl)-4-(((3R,4S)-3-hydroxy-3-(hydroxymethyl)-4-((4-(trifluoromethyl)phenyl)sulfonyl)pyrrolidin-1-yl)sulfonyl)benzonitrile]",8.00 to 10.00
6,"COc1cc(C#N)ccc1S(=O)(=O)N1C[C@H](S(=O)(=O)c2ccc(C(F)(F)F)cc2)[C@](O)(CO)C1 [Example 56, 4-(((3R,4S)-3-hydroxy-3-(hydroxymethyl)-4-((4-(trifluoromethyl)phenyl)sulfonyl)pyrrolidin-1-yl)sulfonyl)-3-methoxybenzonitrile]",7.00 to 8.00
7,"N#Cc1ccc(S(=O)(=O)N2C[C@H](S(=O)(=O)c3ccc(C(F)(F)F)cc3)[C@](O)(CO)C2)c(OC2CC2)c1 [Example 57, 3-cyclopropoxy-4-(((3R,4S)-3-hydroxy-3-(hydroxymethyl)-4-((4-(trifluoromethyl)phenyl)sulfonyl)pyrrolidin-1-yl)sulfonyl)benzonitrile]",7.00 to 8.00
8,"Cc1ccc(S(=O)(=O)N2C[C@H](S(=O)(=O)c3ccc(C#N)cc3)[C@](O)(CO)C2)c(Cl)c1 [Example 58, 4-(((3S,4R)-1-((2-chloro-4-methylphenyl)sulfonyl)-4-hydroxy-4-(hydroxymethyl)pyrrolidin-3-yl)sulfonyl)benzonitrile]",7.00 to 8.00
9,"N#Cc1ccc(S(=O)(=O)[C@H]2CN(S(=O)(=O)c3ccc(Cl)cc3Br)C[C@@]2(O)CO)cc1 [Example 59, 4-(((3S,4R)-1-((2-bromo-4-chlorophenyl)sulfonyl)-4-hydroxy-4-(hydroxymethyl)pyrrolidin-3-yl)sulfonyl)benzonitrile]",8.00 to 10.00
10,"COc1ccc(S(=O)(=O)N2C[C@H](S(=O)(=O)c3ccc(C#N)cc3)[C@](O)(CO)C2)c(Br)c1 [Example 60, 4-(((3S,4R)-1-((2-bromo-4-methoxyphenyl)sulfonyl)-4-hydroxy-4-(hydroxymethyl)pyrrolidin-3-yl)sulfonyl)benzonitrile]",7.00 to 8.00
11,"N#Cc1ccc(S(=O)(=O)N2C[C@H](S(=O)(=O)c3ccc(C(F)(F)F)cn3)[C@](O)(CO)C2)c(OC2CC2)c1 [Example 61, 3-cyclopropoxy-4-(((3R,4S)-3-hydroxy-3-(hydroxymethyl)-4-((5-(trifluoromethyl)pyridin-2-yl)sulfonyl)pyrrolidin-1-yl)sulfonyl)benzonitrile]",7.00 to 8.00
12,"N#Cc1ccc(S(=O)(=O)[C@H]2CN(S(=O)(=O)c3ccc(F)cc3Cl)C[C@@]2(O)CO)cc1 [Example 62, 4-(((3S,4R)-1-((2-chloro-4-fluorophenyl)sulfonyl)-4-hydroxy-4-(hydroxymethyl)pyrrolidin-3-yl)sulfonyl)benzonitrile]",7.00 to 8.00
